# What was measured:
# [1] = biological target: T1, WEIS-EGFP degron in Jurkat cells (Homo sapiens, UniProt Q96SW2+Q9UKT9, N149E/Q147W/Q150I); assay: Time-course EGFP/mCherry flow cytometry degradation assay; type: cell-based
# T1 construct: pLVX-Sprout-IKZF3 130-189aa Q147W N149E Q150I (WEIS); expressed in transfected cells
# Procedure: 6 WEIS degron and compound 23 selectivity. Jurkat, ESC, and MM.1S cells were treated for 16 h with the corresponding compound or DMSO control, and the protein abundance was analyzed using multiplexed TMTpro quantification mass spectrometry. […] (A) Jurkat cells were treated with compound 23. (B). Jurkat cells treated with pomalidomide. (C) ESCs were treated with compound 23. (D) ESCs were treated with pomalidomide. (E) MM.1S cells treated with compound 23. […] Values shown are the mean of three biological replicates. WEIS degron and compound 23 kinetic degradation profile. (G) Jurkat cells were transduced with the WEIS-EGFP degron, then incubated with a concentration range of compound 23 (1 pM – 10 μM) for 1–24 h [as shown] and analyzed using flow cytometry. The DMSO-normalized ratiometric values of EGFP/mCherry are shown. (H). The half-maximal (DC50) values from the assay in […] are shown. Mean and SD values are plotted from three biological replicates. […] (J) Jurkat cells were lentivirally transduced with TRIM28 with either N-terminal or C-terminal WEIS degron tag (or untagged control) and HiBit peptide tag, then incubated with a concentration curve of compound 23 (100 pM – 10 μM) for 24 h and analyzed using a HiBit luminescence assay. […] HEK293T cells were lentivirally transduced with one of three POI fusion constructs–NanoLuc, CDK9, or HPRT1–with an N-terminal HA tag and a C-terminal WEIS degron, then incubated with a concentration range of compound 23 (1 nM – 10 μM) for 18 h and analyzed using HA antibody immunoblotting. […] HEK293T cells were lentivirally transduced with NanoLuc with an N-terminal HA tag and a C-terminal WEIS degron, then incubated with a concentration curve of compound 23 (1 nM – 10 μM) for either 6 or 18 h, and analyzed using a NanoGlo luminescence assay. […]
# We performed a time-course experiment in which Jurkat cells transduced with the WEIS-EGFP degron were treated with compound 23 at a range of concentrations (1 pM–10 μM) at a selection of time points, and the ratiometric degradation values of EGFP/mCherry were assessed using flow cytometry, as above. […]
# endogenous IKZF1 = biological target: T2, endogenous IKZF1 (Homo sapiens, UniProt Q13422+Q96SW2); assay: Western blot for IKZF1 in WEIS-EGFP Jurkat cells; type: cell-based; settings: Jurkat transduced with EGFP-WEIS, 18 h
# T2 construct: endogenous in cells; host or cells: Jurkat (untransduced for immunostaining; WEIS-EGFP-transduced for the blot)
# T2 sequence (Q13422 whole entry): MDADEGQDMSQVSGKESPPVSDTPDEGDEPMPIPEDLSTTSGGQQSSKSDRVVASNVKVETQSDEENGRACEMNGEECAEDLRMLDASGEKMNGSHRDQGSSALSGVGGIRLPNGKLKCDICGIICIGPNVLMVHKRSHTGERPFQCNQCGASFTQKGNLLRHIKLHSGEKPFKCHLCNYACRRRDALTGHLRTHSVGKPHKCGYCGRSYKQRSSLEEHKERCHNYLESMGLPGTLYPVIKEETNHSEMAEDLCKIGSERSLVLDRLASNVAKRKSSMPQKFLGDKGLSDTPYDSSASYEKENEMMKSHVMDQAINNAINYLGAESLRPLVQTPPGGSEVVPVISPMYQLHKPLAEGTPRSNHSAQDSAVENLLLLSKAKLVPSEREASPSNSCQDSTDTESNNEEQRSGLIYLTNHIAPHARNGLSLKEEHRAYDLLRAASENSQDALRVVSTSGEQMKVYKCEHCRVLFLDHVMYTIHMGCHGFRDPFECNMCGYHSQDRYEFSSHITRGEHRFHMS
# T2 sequence (Q96SW2 whole entry): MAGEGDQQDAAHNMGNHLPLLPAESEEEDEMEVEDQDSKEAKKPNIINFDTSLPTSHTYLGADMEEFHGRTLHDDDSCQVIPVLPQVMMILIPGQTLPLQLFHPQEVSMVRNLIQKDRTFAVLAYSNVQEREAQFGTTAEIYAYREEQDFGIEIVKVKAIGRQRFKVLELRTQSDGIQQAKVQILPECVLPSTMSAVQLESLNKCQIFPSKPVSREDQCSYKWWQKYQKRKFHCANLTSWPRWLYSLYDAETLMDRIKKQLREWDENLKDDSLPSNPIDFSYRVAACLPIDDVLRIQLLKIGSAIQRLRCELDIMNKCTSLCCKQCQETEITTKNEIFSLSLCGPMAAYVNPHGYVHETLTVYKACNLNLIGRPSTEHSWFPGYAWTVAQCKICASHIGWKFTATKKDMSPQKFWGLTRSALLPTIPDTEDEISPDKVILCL
# T2 sequence (Q16531 whole entry partner): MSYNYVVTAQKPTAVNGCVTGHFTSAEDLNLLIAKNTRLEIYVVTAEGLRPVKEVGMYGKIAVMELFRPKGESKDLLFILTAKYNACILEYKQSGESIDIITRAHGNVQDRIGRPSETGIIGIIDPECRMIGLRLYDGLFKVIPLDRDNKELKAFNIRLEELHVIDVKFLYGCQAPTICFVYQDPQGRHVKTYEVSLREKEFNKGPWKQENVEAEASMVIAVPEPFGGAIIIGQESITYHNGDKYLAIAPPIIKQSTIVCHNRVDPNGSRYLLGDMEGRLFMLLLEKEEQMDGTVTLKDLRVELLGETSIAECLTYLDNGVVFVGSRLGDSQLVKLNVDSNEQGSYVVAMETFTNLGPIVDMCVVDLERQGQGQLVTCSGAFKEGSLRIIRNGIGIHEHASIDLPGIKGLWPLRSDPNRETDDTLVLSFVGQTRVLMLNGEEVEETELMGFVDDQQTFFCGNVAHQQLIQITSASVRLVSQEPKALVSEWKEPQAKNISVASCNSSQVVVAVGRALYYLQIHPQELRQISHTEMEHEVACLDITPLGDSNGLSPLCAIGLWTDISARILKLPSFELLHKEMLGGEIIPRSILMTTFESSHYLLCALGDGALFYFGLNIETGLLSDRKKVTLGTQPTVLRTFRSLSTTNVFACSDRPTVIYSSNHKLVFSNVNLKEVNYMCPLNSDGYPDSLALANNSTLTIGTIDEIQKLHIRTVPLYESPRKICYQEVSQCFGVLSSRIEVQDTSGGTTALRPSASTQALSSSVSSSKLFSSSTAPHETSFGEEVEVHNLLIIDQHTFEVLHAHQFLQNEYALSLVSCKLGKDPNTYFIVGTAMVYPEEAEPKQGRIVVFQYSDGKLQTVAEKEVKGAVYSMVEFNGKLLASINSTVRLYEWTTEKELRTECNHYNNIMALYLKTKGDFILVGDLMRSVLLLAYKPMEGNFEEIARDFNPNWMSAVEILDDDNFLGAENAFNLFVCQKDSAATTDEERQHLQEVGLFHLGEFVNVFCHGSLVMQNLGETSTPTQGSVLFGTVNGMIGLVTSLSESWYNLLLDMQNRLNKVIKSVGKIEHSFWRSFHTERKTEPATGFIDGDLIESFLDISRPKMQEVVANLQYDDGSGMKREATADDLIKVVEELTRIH
# T1 sequence (Q9UKT9 130-189 Q147W/N149E/Q150I): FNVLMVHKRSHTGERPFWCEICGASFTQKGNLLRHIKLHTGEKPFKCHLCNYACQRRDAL
# T1 sequence (Q96SW2 whole entry): as the sequence (Q96SW2 whole entry) above
# T1 sequence (Q16531 whole entry partner): as the sequence (Q16531 whole entry partner) above
smiles,measurement,setting,value
CN1CCN(c2ccc3c(c2)C(=O)N(C2CCC(=O)NC2=O)C3=O)CC1 (stereo not shown) [Compound 23],DC50,[1]; time point 1 h,10.3 nM
same,DC50,[1]; time point 6 h,2.3 nM
same,DC50,[1]; time point 24 h,18.3 nM
same,degradation of endogenous IKZF1 (Western blot),endogenous IKZF1,showed no degradation
